Values joined by “and” are separate entries in the source; they are usually repeats but may differ in a detail not shown here. Identical values can stand only once. Active and inactive are the calls of the source.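 The calls were made as follows: active = compounds giving half or more protection of infected cells from virus-caused growth loss, again on retest; inactive = the rest.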
System: CEM cells HIV-1 protection, formazan growth assay
Assay: NCI AIDS Antiviral Assay
Conditions: for IC50: measured here: growth of uninfected CEM cells
Procedure, shortened: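 CEM (human) cells, HIV-1 infected vs uninfected, 5-point dosing, formazan growth read-out. Retest threshold 50% protection.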

SMILES	EC50	IC50	outcome
NC(=O)C1CCCN1C(=O)C(Cc1cnc[nH]1)NC(=O)C1CCCC1 (stereo unspecified)	> 200 µM	> 200 µM	–
Clc1ccc(OCc2nnc(CCCCCCCCc3nnc(COc4ccc(Cl)cc4Cl)o3)o2)c(Cl)c1	> 200 µM	129 µM	–
NC(=O)[N+](=CC(=S)Nc1ccccc1Cl)C(N)=O	> 200 µM	> 200 µM	–
Cc1cn(C2C=CCCC2O)c(=O)[nH]c1=O (stereo unspecified)	> 200 µM	> 200 µM	–
COc1ccc(CNc2nc3ccccc3nc2C(=O)O)cc1	> 200 µM	34.7 µM	–
Cc1nc2c(=O)[nH]ncc2[nH]1	> 200 µM	> 200 µM	–
CC(=C(c1ccccc1)c1ccccc1)N1C(=O)CC(=O)N1C	> 200 µM	120 µM	–
O/N=C1/CCC/C1=C\c1ccccc1	–	–	inactive
COC(=O)CC1C(=O)OC23CCC1C2(C)CCC1C3CCC2CC(OC(C)=O)CCC21C (stereo unspecified)	–	–	inactive
COc1ccc(C2c3cc4c(cc3OC(N3CCOCC3)C2C)OCO4)cc1 (stereo unspecified)	> 200 µM	53.7 µM	–
O=C(c1ccccc1)N1CCC(Nc2cccnc2)O1 (stereo unspecified)	> 200 µM	105 µM	–
O=C1CC2CC(=O)CC2(C2CC=CC2)C1 (stereo unspecified)	> 245 µM	> 245 µM	–
O=C1NC(=O)C(SSC2C(=O)NC(=O)NC2=O)C(=O)N1	> 200 µM	> 200 µM	–
[Cu].c1ccc2c3[n-]c(c2c1)/N=c1\[n-]/c(c2ccccc12)=N\c1[n-]c(c2ccccc12)/N=c1\[n-]/c(c2ccccc12)=N\3	> 200 µM	51.3 µM	–
Nc1ccc(N=Nc2ccc(C(=O)O)cc2)c(N)c1N=Nc1ccc(N=Nc2ccc(O)c(C(=O)O)c2)cc1	49 µM	> 100 µM	–
COc1ccc(-c2cc(=O)c3ccccc3o2)c(OC)c1OC	> 200 µM	31.6 µM	–
CC(C)/C=C/c1cc(/C=C/C(=O)c2cc(/C=C/C(C)C)c(O)cc2O)ccc1O	–	–	inactive
CC(=O)NC(CCCCN(Cc1ccccc1)C(=O)NCCCl)C(=O)NCc1ccccc1 (stereo unspecified)	> 525 µM	355 µM	–
COC(=O)c1cc2c(cc1CC(Cc1ccc3c(c1)CCCC3)C(=O)OC)CCCC2 (stereo unspecified)	> 200 µM	57.5 µM	–
CCOC(=O)C(NC(=O)CC(C)C)(Nc1ccc(C(F)(F)F)cc1)C(F)(F)F (stereo unspecified)	> 200 µM	56.2 µM	–

SMILES	EC50	IC50	outcome
COc1ccc(C2=C(N)c3c(OC)cccc3C2=O)cc1	> 200 µM	> 200 µM	–
CCOC(=O)c1c(-c2cccc3ccccc23)c(C#N)c(=S)n(C2OC(COC(C)=O)C(OC(C)=O)C(OC(C)=O)C2OC(C)=O)c1C (stereo unspecified)	> 200 µM	7.76 µM	–
NNc1c(Cl)c(=O)n(-c2ccccc2)[nH]c1=O	> 200 µM	> 200 µM	–
O=C(Nc1cccc2ccccc12)N1CCCC(Br)C1 (stereo unspecified)	> 200 µM	195 µM	–
C[S+](C)c1ccccc1	> 1050 µM	457 µM	–
O=C(c1ccc(Cl)cc1)c1cnc2nc(-c3ccccc3)c(-c3ccccc3)nn12	> 1.78 µM	> 1.78 µM	–
CC(=O)OCC1OC(OCCCOP(=S)(OCCC#N)OCC2OC(n3ccc(N)nc3=O)C(OC(=O)c3ccccc3)C2OC(=O)c2ccccc2)C(OC(C)=O)C(OC(C)=O)C1OC(C)=O (stereo unspecified)	> 100 µM	> 100 µM	–
CN(C)CC1CCC/C(=C\c2ccc(N(C)C)cc2)C1=O (stereo unspecified)	> 200 µM	2.24 µM	–
CC(C)=Cc1cc(C(=O)NCCNC(=O)c2cc(C=C(C)C)nc(NC#N)n2)nc(NC#N)n1	> 5.89 µM	> 5.89 µM	–
Cc1ccc(/C=N/NC2=NCCN2)s1	> 200 µM	166 µM	–
COC(=O)N/N=C(\C(=O)Nc1cccc([N+](=O)[O-])c1)c1nc2ccc([N+](=O)[O-])cc2[nH]c1=O	> 148 µM	> 148 µM	–
CCOC(=O)C1=C(O)C(=O)c2ccoc2C1=O	> 79.4 µM	> 79.4 µM	–
Cc1csc2nc(-c3cccs3)nn12	> 200 µM	> 200 µM	–
CCC(/C=C/c1ccccc1)=N\N=C(\C=C\c1ccccc1)CC	> 41.7 µM	2.51 µM	–
O=[N+]([O-])c1ccc(S(=O)(=O)NN2CCOCC2)cc1	> 126 µM	> 126 µM	–
O=[N+]([O-])c1ccc(C[P+](c2ccccc2)(c2ccccc2)c2ccccc2)cc1	> 200 µM	87.1 µM and 40.7 µM	–
N#C/C(=C\c1ccc(O)c(O)c1)C(=O)OCc1ccccc1COC(=O)/C(C#N)=C/c1ccc(O)c(O)c1	> 200 µM	8.71 µM	–
CN(C)c1nc2oc(-c3ccccc3)c(-c3ccccc3)c2c2nnnn12	–	–	inactive
CC(=O)OCC1OC(OCCCOP(=O)(OCCC#N)OCC2OC(n3cnc4c(N)ncnc43)C(OC(=O)c3ccccc3)C2OC(=O)c2ccccc2)C(OC(C)=O)C(OC(C)=O)C1OC(C)=O (stereo unspecified)	> 100 µM	> 100 µM	–
COc1cccc(C2c3cc4c(cc3OC(Nc3ccccc3)C2C)OCO4)c1O (stereo unspecified)	> 200 µM	3.55 µM	–

Source: PubChem BioAssay AID179 (DTP/NCI, 2004)
